Experimental data reported in publication PMC4490130 (Cancer research, 2015).

Biological target: Pim-1 (Homo sapiens, UniProt P11309)
Assay: X-ray crystal structure
Format: biochemical

IC50: ~3 µM
SMILES: O=C/C=C/c1ccccc1O [2′-HCA]
